According to patent US7064120B2, “Tricyclic pyridyl carboxamides and derivatives thereof tocolytic oxytocin receptor antagonists” (Wyeth, priority 2001, dated 2006):

Target: T1, human vasopressin V2 receptor subtype (Homo sapiens, UniProt P30518)
T1 construct: host or cells: CHO cells, stably transfected (pZeoSV vector)
Assay: Vasopressin binding in CHO cell membranes expressing human vasopressin V2 subtype receptors ([3H]arginine vasopressin radioligand binding)
Details: 100 nM
Description: Vasopressin Binding in Chinese Hamster Ovary Cell Membranes Expressing Human Vasopressin V2 Subtype Receptors
Chinese Hamster Ovary (CHO) cells stably transfected with the human V2 subtype receptors were obtained from M. Thibonnier, Case Western Reserve University School of Medicine, Cleveland, Ohio.
The trypsin is removed by aspiration and the cells dislodged by tapping. Cell Culture medium (e.g. 30 mL for 1:30 split) is immediately added and mixed well to inactivate trypsin. 1 mL of detached cells is added to new culture flasks containing fresh Cell Culture medium (e.g. into 25 mL per T-150 flask), and mixed gently. The cells are incubated at 37° C. in 5% CO2. The medium is changed at 3 to 4 day interval (or as appropriate). […] All steps are done under sterile conditions.
The cells are washed twice gently with Hank's Balanced Salt solution (e.g. use 10 mL per T-150 flask). […] The contents are transferred to centrifuge tubes (50 mL) kept in ice bath. All subsequent steps are done at 4° C. The tubes are centrifuged at 300×g for 15 min (1380 rpm on SORVAL, Model RT6000D, using the rotor for 50 mL tubes). The supernatant is discarded and the cells suspended in homogenizing buffer(10 mM Tris-HCl containing 0.25 M sucrose and 1 mM EDTA, pH 7.4) ensuring that the volume of the buffer is about ten times the volume of the cell pellet. The cells are pooled into a centrifuge tube (50 mL) and homogenized with Polytron at setting 6 for 10 sec. The homogenate is transferred into a Potter-Elvjehm homogenizer and homogenized with 3 strokes. The homogenate is centrifuged at 1500×g for 60 min at 4° C. (3100 rpm using SORVAL, model RT6000D, using the rotor for 50 mL tubes). The pellet is discarded. The supernatant is centrifuged at 100,000×g for 60 min. at 4° C. (Beckman L8-80M ultracentrifuge; spin at 37,500 rpm with rotor type 70 Ti for 50 mL tubes; 38,000 rpm with type 80Ti for 15 mL tubes; or 35,800 rpm with rotor type 45Ti). The supernantant is discarded and the pellet suspended in 3 to 4 mL of Tris buffer (50 mM TRIS-HCl, pH 7.4). The protein content is estimated by the Bradford or Lowry method. The volume of the membrane suspension is adjusted with the membrane buffer (50 mM Tris-HCl containing 0.1% BSA and 0.1 mM PMSF) to give 3.0 mg/mL (or as appropriate) of protein. The membranes are aliquoted and stored at −70° C.
In wells of a 96-well format microtiter plate, is added 90, 110 or 130 μL (to make up a final volume of 200 μL) of assay buffer containing 50 mM of Tris-HCl (pH 7.4), […], 1 mg % aprotinin, 1 mg % leupeptin, 2 mg % 1,10-phenanthroline, 10 mg % trypsin inhibitor, and 0.1 mM PMSF. The inhibitors are added on the day of the experiment. The components are mixed at room temperature, and then kept in ice bath following adjustment of the pH to 7.4. […] For vasopressin and other peptide ligands 20 μL of 50% DMSO is added and the assay buffer volume is adjusted accordingly. To each well is added 50 μL of frozen membrane suspension thawed immediately prior to use and diluted in assay buffer to the required concentration (equivalent to 25 to 50 μg of protein/well as needed). 20 μL of 8 nM [^3H]arginine vasopressin ligand in the assay buffer, prepared just before use is added and incubated at room temperature for 60 min. shaking the plate on a mechanical shaker for the first 15 min. The incubation is stopped by rapid filtration of the plate contents followed by wash with ice-cold buffer (50 mM Tris-HCl, pH 7.4) using a cell harvester (Tomtek and Printed filtermat-B filter paper). The filter paper is thoroughly dried (7–12 min. in a microwave oven) and impregnated with MeltiLex B/H melt-on scintillation wax sheets and the radioactivity counted in a betaplate scintillation counter.
Binding data is either reported as percent inhibition at a certain concentration or if an IC50 was calculated, as a nanomolar concentration.

T1 sequence (P30518 whole entry): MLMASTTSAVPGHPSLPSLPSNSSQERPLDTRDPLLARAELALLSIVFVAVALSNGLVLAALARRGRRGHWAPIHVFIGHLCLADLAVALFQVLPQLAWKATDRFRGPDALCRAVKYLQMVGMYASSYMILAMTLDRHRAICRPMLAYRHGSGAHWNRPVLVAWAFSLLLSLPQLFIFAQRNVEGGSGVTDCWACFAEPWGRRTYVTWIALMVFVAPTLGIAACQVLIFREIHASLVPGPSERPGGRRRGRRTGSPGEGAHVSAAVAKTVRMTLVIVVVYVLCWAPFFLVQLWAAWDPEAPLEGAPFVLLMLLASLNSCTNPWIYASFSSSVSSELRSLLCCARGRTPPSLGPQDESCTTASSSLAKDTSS

In the case of `COc1ccccc1-c1ccc(C(=O)N2Cc3ccc(C(=O)NCc4ccccn4)n3Cc3ccccc32)cc1C` [Example 24, 10-[(2′-Methoxy-2-methyl-[1,1′-biphenyl]-4-yl)carbonyl]-N-(2-pyridinylmethyl)-10,11-dihydro-5H-pyrrolo[2,1-c][1,4]benzodiazepine-3-carboxamide], the inhibition at 0.1 µM is reported as 26%.

For `COc1cccc(-c2ccc(C(=O)N3Cc4ccc(C(=O)NCc5ccccn5)n4Cc4ccccc43)cc2C)c1` [Example 25, 10-[(3′-Methoxy-2-methyl-[1,1′-biphenyl]-4-yl)carbonyl]-N-(2-pyridinylmethyl)-10,11-dihydro-5H-pyrrolo[2,1-c][1,4]benzodiazepine-3-carboxamide], the inhibition at 0.1 µM was 33%.

`COc1ccccc1-c1ccc(C(=O)N2Cc3ccc(C(=O)NCc4ccccn4)n3Cc3ccccc32)cc1` [Example 26, 10-[(2′-Methoxy-[1,1′-biphenyl]-4-yl)carbonyl]-N-(2-pyridinylmethyl)-10,11-dihydro-5H-pyrrolo[2,1-c][1,4]benzodiazepine-3-carboxamide] showed an inhibition at 0.1 µM of 23%.

`Cc1ccccc1-c1ccc(C(=O)N2Cc3ccc(C(=O)NCc4ccccn4)n3Cc3ccccc32)cc1` [Example 27, 10-[(2′-Methyl-[1,1′-biphenyl]-4-yl)carbonyl]-N-(2-pyridinylmethyl)-10,11-dihydro-5H-pyrrolo[2,1-c][1,4]benzodiazepine-3-carboxamide] showed an inhibition at 0.1 µM of 16%.

`COc1cc(C(=O)N2Cc3ccc(C(=O)NCc4ccccn4)n3Cc3ccccc32)ccc1-c1ccccc1C` [Example 28, 10-[(2-Methoxy-2′-methyl-[1,1′-biphenyl]-4-yl)carbonyl]-N-(2-pyridinylmethyl)-10,11-dihydro-5H-pyrrolo[2,1-c][1,4]benzodiazepine-3-carboxamide] gave an inhibition at 0.1 µM of 20%.

`COc1cc(-c2ccccc2C)c(Cl)cc1C(=O)N1Cc2ccc(C(=O)NCc3ccccn3)n2Cc2ccccc21` [Example 29, 10-[(6-Chloro-3-methoxy-2′-methyl-[1,1′-biphenyl]-4-yl)carbonyl]-N-(2-pyridinylmethyl)-10,11-dihydro-5H-pyrrolo[2,1-c][1,4]benzodiazepine-3-carboxamide] showed an inhibition at 0.1 µM of 12%.

Molecule `COc1cccc(-c2cc(OC)c(C(=O)N3Cc4ccc(C(=O)NCc5ccccn5)n4Cc4ccccc43)cc2Cl)c1` [Example 30, 10-[(6-Chloro-3,3′-dimethoxy-[1,1′-biphenyl]-4-yl)carbonyl]-N-(2-pyridinylmethyl)-10,11-dihydro-5H-pyrrolo[2,1-c][1,4]benzodiazepine-3-carboxamide] has an inhibition at 0.1 µM of 14%.

For `COc1cc(C(=O)N2Cc3ccc(C(=O)NCc4ccccn4)n3Cc3ccccc32)ccc1-c1cccc2ccccc12` [Example 31, 10-[3-Methoxy-4-(naphthalen-1-yl)benzoyl]-N-(2-pyridinylmethyl)-10,11-dihydro-5H-pyrrolo[2,1-c][1,4]benzodiazepine-3-carboxamide], the inhibition at 0.1 µM was 31%.

Work on `COc1ccccc1-c1ccc(C(=O)N2Cc3ccc(C(=O)NCc4ccccn4)n3Cc3ccccc32)cc1OC` [Example 32, 10-[(2,2′-Dimethoxy-[1,1′-biphenyl]-4-yl)carbonyl]-N-(2-pyridinylmethyl)-10,11-dihydro-5H-pyrrolo[2,1-c][1,4]benzodiazepine-3-carboxamide] yielded an inhibition at 0.1 µM of 21%.

`COc1cccc(-c2ccc(C(=O)N3Cc4ccc(C(=O)NCc5ccccn5)n4Cc4ccccc43)cc2OC)c1` [Example 33, 10-[(2,3′-Dimethoxy-[1,1′-biphenyl]-4-yl)carbonyl]-N-(2-pyridinylmethyl)-10,11-dihydro-5H-pyrrolo[2,1-c][1,4]benzodiazepine-3-carboxamide] showed an inhibition at 0.1 µM of 21%.

Molecule `O=C(NCc1ccccn1)c1ccc2n1Cc1ccccc1N(C(=O)c1ccc(-c3cccc4ccccc34)cc1Cl)C2` [Example 34, 10-[2-Chloro-4-(naphthalen-1-yl)benzoyl]-N-(2-pyridinylmethyl)-10,11-dihydro-5H-pyrrolo[2,1-c][1,4]benzodiazepine-3-carboxamide] has an inhibition at 0.1 µM of 5%.

In the case of `Cc1cc(C(=O)N2Cc3ccc(C(=O)NCc4ccccn4)n3Cc3ccccc32)ccc1-c1ccccc1C(F)(F)F` [Example 35, 10-{[2-Methyl-2′-trifluoromethyl-[1,1′-biphenyl]-4-yl]carbonyl}-N-(2-pyridinylmethyl)-10,11-dihydro-5H-pyrrolo[2,1-c][1,4]benzodiazepine-3-carboxamide], the inhibition at 0.1 µM is reported as 14%.

`COc1ccccc1-c1ccc(C(=O)N2Cc3ccc(C(=O)NCc4cccnc4)n3Cc3ccccc32)cc1C` [Example 36, 10-[(2′-Methoxy-2-methyl-[1,1′-biphenyl]-4-yl)carbonyl]-N-(3-pyridinylmethyl)-10,11-dihydro-5H-pyrrolo[2,1-c][1,4]benzodiazepine-3-carboxamide] was tested, and the inhibition at 0.1 µM was 24%.

For `Cc1ccccc1-c1ccc(C(=O)N2Cc3ccc(C(=O)NCc4cccnc4)n3Cc3ccccc32)cc1C` [Example 37, 10-[(2,2′-Dimethyl-[1,1′-biphenyl]-4-yl)carbonyl]-N-(3-pyridinylmethyl)-10,11-dihydro-5H-pyrrolo[2,1-c][1,4]benzodiazepine-3-carboxamide], the inhibition at 0.1 µM was 7%.

With `COc1cccc(-c2ccc(C(=O)N3Cc4ccc(C(=O)NCc5cccnc5)n4Cc4ccccc43)cc2C)c1` [Example 38, 10-[(3′-Methoxy-2-methyl-[1,1′-biphenyl]-4-yl)carbonyl]-N-(3-pyridinylmethyl)-10,11-dihydro-5H-pyrrolo[2,1-c][1,4]benzodiazepine-3-carboxamide] the inhibition at 0.1 µM was 21%.

Work on `COc1ccccc1-c1ccc(C(=O)N2Cc3ccc(C(=O)NCc4cccnc4)n3Cc3ccccc32)cc1` [Example 39, 10-[(2′-Methoxy-[1,1′-biphenyl]-4-yl)carbonyl]-N-(3-pyridinylmethyl)-10,11-dihydro-5H-pyrrolo[2,1-c][1,4]benzodiazepine-3-carboxamide] yielded an inhibition at 0.1 µM of 11%.

`Cc1ccccc1-c1ccc(C(=O)N2Cc3ccc(C(=O)NCc4cccnc4)n3Cc3ccccc32)cc1` [Example 40, 10-[(2′-Methyl-[1,1′-biphenyl]-4-yl)carbonyl]-N-(3-pyridinylmethyl)-10,11-dihydro-5H-pyrrolo[2,1-c][1,4]benzodiazepine-3-carboxamide] gave an inhibition at 0.1 µM of 11%.

`COc1cc(C(=O)N2Cc3ccc(C(=O)NCc4cccnc4)n3Cc3ccccc32)ccc1-c1ccccc1C` [Example 41, 10-[(2-Methoxy-2′-methyl-[1,1′-biphenyl]-4-yl)carbonyl]-N-(3-pyridinylmethyl)-10,11-dihydro-5H-pyrrolo[2,1-c][1,4]benzodiazepine-3-carboxamide] was tested, and the inhibition at 0.1 µM was 16%.

Molecule `COc1cc(-c2ccccc2C)c(Cl)cc1C(=O)N1Cc2ccc(C(=O)NCc3cccnc3)n2Cc2ccccc21` [Example 42, 10-[(6-Chloro-3-methoxy-2′-methyl-[1,1′-biphenyl]-4-yl)carbonyl]-N-(3-pyridinylmethyl)-10,11-dihydro-5H-pyrrolo[2,1-c][1,4]benzodiazepine-3-carboxamide] has an inhibition at 0.1 µM of 8%.

Molecule `COc1cccc(-c2cc(OC)c(C(=O)N3Cc4ccc(C(=O)NCc5cccnc5)n4Cc4ccccc43)cc2Cl)c1` [Example 43, 10-[(6-Chloro-3,3′-dimethoxy-[1,1′-biphenyl]-4-yl)carbonyl]-N-(3-pyridinylmethyl)-10,11-dihydro-5H-pyrrolo[2,1-c][1,4]benzodiazepine-3-carboxamide] has an inhibition at 0.1 µM of 7%.
